# Where “and” joins values, the source holds several entries; their conditions need not be identical. Equal values may be shown once.
# Experiments:
# Dietary Obese Mice [1] = assay: Body weight gain, diet intake and food efficiency ratio in high fat diet-fed mice; format: in vivo; settings: 10 weeks
# Protocol: (§1) As a control drug, metformin (Met) or sibutramine (Sibu) which is an anti-obesity drug was added at a concentration of about 0.01% to HFD and used (Table 1). For a normal diet (chow) group, a commercially available rodent chow was fed. Pinocarveol, metformin, and sibutramine were all purchased from Sigma-Aldrich Company (U.S.).
# (§2) 5-week-old male C57BL/6J mice (Orient, Korea) were adjusted to a laboratory condition with solid feed for one week and randomly assigned to a high fat diet control group and experimental groups according to the randomized block method, followed by raising for ten weeks. Diet was supplied with water between 10 and 11 a.m. every day, intake amounts of diet was measured every day, and weight was measured every week. In order to prevent sudden weight changes due to feed intake, feed containers were removed, and weight was measured after 2 hours. Experimental animals were fasted for 12 hours or longer and anaesthetized by diethyl ether, and blood, liver, adipose tissues of internal organs (epididymal fat, fat around the kidney, mesenteric fat, and retroperitoneal fat) were collected, washed with 0.1M phosphate buffer solution (pH 7.4), and measured for weight. Blood collected from abdominal aorta was centrifuged at 1,000×g for 15 minutes to separate blood plasma.
# β-catenin = assay: Western blot of β-catenin in adipose tissues of internal organs; format: in vivo, mice; settings: PD vs HFD
# Protocol: (§3) A predetermined amount of visceral fat or hepatic tissues was homogenized with liquid nitrogen and a lysis buffer solution in a mortar and centrifuged at 13,000×g and 4° C. for 20 minutes, and the middle layer was obtained to quantify proteins according to the Bradford method. 50 μg of the protein was subject to electrophoresis on an SDS polyacrylamide gel, was subject to electroblotting on a PVDF hyper film, and was reacted with the corresponding antibody, β-catenin, phospho-AMPK (AMP-activated protein kinase), AMPK, GAPDH (Cell-Signaling Technology, U.S.), respectively. The signal of each protein was visualized by a chemiluminescent detection system (Amersham, U.K.), and the thickness of bands was quantified by using the Quantity One Analysis Software (Bio-Rad Laboratories, U.S.).
# [2] = cited from earlier work
# [3] = tested on: IL-6, TNFα, MCP1, and leptin; assay: Inflammatory cytokine concentration in blood (ELISA); format: in vivo, mice; settings: PD vs HFD group, 10 weeks
# Protocol: as §1
# The concentrations of plasma IL-6, TNFα, MCP1, and leptin were measured by the ELISA method using the Milliplex map kit (Millipore Corporation, U.S.).
# Dietary Obese Mice [4] = assay: Fasting blood glucose and insulin concentration; format: in vivo; settings: PD vs HFD group, 10 weeks
# Protocol: as §1
# Meanwhile, the glucose concentration of the blood plasma obtained during fasting which was collected from mice raised for 10 weeks was measured by using a biochemical automatic analyzer (Express Plus, Chiron Diagnostics Co., U.S.), and kit reagents for analysis were purchased from Bio-Clinical System (Korea).
# The insulin concentration of blood plasma obtained during fasting was measured by using a mouse insulin ELISA kit (Millipore Corporation, U.S.).
# Dietary Obese Mice [5] = assay: Liver function indexes (ALT, AST activity) in blood plasma; format: in vivo; settings: PD vs HFD group, 10 weeks
# Protocol: as §1, §2
# [6] = tested on: genes related to lipogenesis; assay: RT-PCR gene expression in hepatic tissues; format: in vivo, mice; settings: PD vs HFD
# Protocol: (§4) 1 mL of TRIzol solution was added per 0.1 g of adipose tissues of internal organs and hepatic tissues, and tissues were crushed and centrifuged at 4° C. and 12,000×g for 10 minutes. The supernatant was placed in a new tube, and 200 μL of chloroform was added followed by stirring. After repeating this procedure twice, the supernatant was placed in a new tube, and isopropanol and the supernatant were added at a ratio of 1:1. After strongly shaking for 10 times, the mixture was placed at room temperature for 10 minutes, centrifuged at 4° C. and 12,000×g for 10 minutes to remove the supernatant, and 1 mL of 70% ethanol was added to the precipitate to be centrifuged at 4° C. and 7,500×g for 5 minutes. After removing ethanol, the tube containing RNA precipitate was dried at room temperature for 5 minutes, and RNA pellet was dissolved using nuclease free water. By a using UV/VIS spectrophotometer (Beckman coulter, DU730, U.S.), the concentrations of RNA samples extracted at wavelengths of 260 nm and 280 nm were measured, and by carrying out agarose gel electrophoresis, the integrity of RNA samples was determined.
# (§5) For RNA samples extracted from adipose tissues of internal organs and hepatic tissues, oligo dT primers and superscript reverse transcriptase (GIBCO BRL, U.S.) were used to carry out reverse transcription to synthesize cDNA. By using the cDNA obtained by reverse transcription as a […] and using a 5′ and 3′ flanking sequence of the cDNA of the gene to be amplified as a primer, PCR was carried out, and at this time, the sequences of the used primers are shown in Table 2. 1 μL of the amplified PCR product was subject to electrophoresis on a 1% agarose gel to check for DNA bands.
# [7] = tested on: genes related to thermogenesis and adipogenesis; assay: RT-PCR gene expression in adipose tissues of internal organs; format: in vivo, mice; settings: PD vs HFD
# Protocol: as §4, §5
# AMPK = assay: Western blot of p-AMPK/AMPK in hepatic tissues; format: in vivo, mice; settings: PD vs HFD
# Protocol: as §3
# Dietary Obese Mice [8] = assay: Liver weight and lipid concentration of hepatic tissue (Folch extraction); format: in vivo; settings: PD vs HFD group, 10 weeks
# Protocol: as §1, §2
# Lipid components of hepatic tissues were collected as follows according to the method by Folch, et al. (Folch J, Lees M, Sloane Stanley G H. A simple method for the isolation and purification of total lipids from animal tissues. J Bio Chem. 1957; 226: 497-509). 1 mL of distilled water was applied to a hepatic tissue (0.25 g) and homogenized by using a Polytron homogenizer (IKA-WERKE GmbH & Co., Ultra-Turrax, Staufen, Germany). 5 mL of a chloroform:methanol solution (2:1, v/v) was added to the homogeneous solution, mixed well and centrifuged at 1,000×g for 10 minutes to separate a lower phase. 2 mL of a chloroform:methanol solution (2:1, v/v) was added to an upper phase again, and after repeating the same procedure, lipid components of the liver were completely separated. 3 mL of a chloroform:methanol:0.05% CaCl2) (3:48:47, v/v/v) solution was added to the lower phase thus obtained, mixed for 1 minute, and centrifuged at 1,000×g for 10 minutes. After obtaining the final lower phase and completely drying with nitrogen gas, the dried lipids were dissolved in 1 mL of methanol to use for lipid component analysis.
# The concentrations of neutral fat, cholesterol, and free fatty acids of the lipid extracts of hepatic tissues were measured by using the same commercially available measurement kit (Bio Clinical System, Korea) as previously used for the analysis of plasma lipid concentration.
# Dietary Obese Mice [9] = assay: Oral glucose tolerance test; format: in vivo; settings: PD vs HFD group, at 8 weeks, d-glucose 2 g/kg oral
# Protocol: An obesity inducing diet used in the present invention included a high fat control diet (HFD: 40% fat calorie, 17 g lard, and 3% corn oil/100 g diet), and a pinocarveol-supplemented high fat diet (PD) supplemented with pinocarveol (80,613, Sigma-Aldrich Company, CAS Number: 547-61-5, (1S,3R,5S)-6,6-dimethyl-2-methylenebicyclo[3,1,1]heptan-3-ol) has the same composition as HFD, but about 0.2% of pinocarveol was added. As a control drug, metformin (Met) or sibutramine (Sibu) which is an anti-obesity drug was added at a concentration of about 0.01% to HFD and used (Table 1). For a normal diet (chow) group, a commercially available rodent chow was fed. Pinocarveol, metformin, and sibutramine were all purchased from Sigma-Aldrich Company (U.S.).
# At 8 weeks of experimental raising, experimental animals were fasted for 16 hours and orally administered with d-glucose corresponding to 2 g/kg body weight, and blood was collected from the tail vein of mice at time points of 15 minutes, 30 minutes, 60 minutes, and 120 minutes. The glucose concentration of collected blood was measured by using a script-operation blood glucose sensor (ONETOUCH Ultra, Inverness Medical Ltd., U.K.).
# Dietary Obese Mice [10] = assay: Plasma lipid concentration (commercial measurement kit); format: in vivo; settings: 10 weeks
# Protocol: as §1, §2
# In order to evaluate the concentrations of plasma cholesterol, neutral fat, and free fatty acids of experimental animals raised for ten weeks, a commercially available measurement kit (Bio Clinical System, Korea) was used to perform measurement by repeating 2 measurements, respectively.
# Dietary Obese Mice [11] = assay: Visceral fat weight in high fat diet-fed mice; format: in vivo; settings: 10 weeks
# Protocol: as §1, §2
# After feeding the experimental diets for 10 weeks, each of epididymal fat, fat around the kidney, mesenteric fat, and retroperitoneal fat, which compose visceral fat, was extracted to measure the weight thereof.
smiles,measurement,setting,value
"C=C1[C@H](O)C[C@@H]2C[C@H]1C2(C)C [pinocarveol, (1S,3R,5S)-6,6-dimethyl-2-methylenebicyclo[3,1,1]heptan-3-ol]",decrease in cumulative body weight gain,Dietary Obese Mice [1]; PD (about 0.2% pinocarveol in HFD) vs HFD group,32%
same,decrease in food efficiency ratio (cumulative body weight gain / total diet intake),Dietary Obese Mice [1]; PD vs HFD group,32%
same,protein expression amount of β-catenin,β-catenin,significant increase
same,protein expression amount of β-catenin,β-catenin; listed as PD,significantly increased
same,solubility in oil and ethanol,[2]; oil and ethanol,dissolve in oil and ethanol
same,solubility in water,[2]; water,does not dissolve
same,decrease in plasma IL-6 concentration,[3],70%
same,decrease in plasma MCP1 concentration,[3],35%
same,decrease in plasma TNFα concentration,[3],28%
same,decrease in plasma leptin concentration,[3],40%
same,decrease in fasting blood glucose concentration,Dietary Obese Mice [4],21%
same,decrease in fasting blood insulin concentration,Dietary Obese Mice [4],50%
same,decrease in alanine aminotransferase (ALT) activity in blood plasma,Dietary Obese Mice [5],44% and 52%
same,decrease in aspartate aminotransferase (AST) activity in blood plasma,Dietary Obese Mice [5],32% and 34%
same,ACC gene expression,[6],significantly decreased
same,FAS gene expression,[6],significantly decreased
same,LPL gene expression,[6],significantly decreased
same,LXRα gene expression,[6],significantly decreased
same,SREBP gene expression,[6],significantly decreased
same,ACC gene expression,[6]; listed as PD,significantly decreased again
same,FAS gene expression,[6]; listed as PD,significantly decreased again
same,LPL gene expression,[6]; listed as PD,significantly decreased again
same,LXRα gene expression,[6]; listed as PD,significantly decreased again
same,SREBP gene expression,[6]; listed as PD,significantly decreased again
same,C/EBPα gene expression,[7],significantly decreased
same,CD36 gene expression,[7],significantly decreased
same,FAS gene expression,[7],significantly decreased
same,PGC-1α gene expression,[7],significantly increased
same,PPARγ2 gene expression,[7],significantly decreased
same,UCP1 gene expression,[7],significantly increased
same,UCP3 gene expression,[7],significantly increased
same,leptin gene expression,[7],significantly decreased
same,C/EBPα gene expression,[7]; listed as PD,significantly decreased again
same,CD36 gene expression,[7]; listed as PD,significantly decreased again
same,FAS gene expression,[7]; listed as PD,significantly decreased again
same,PGC-1α gene expression,[7]; listed as PD,significantly increased again
same,PPARγ2 gene expression,[7]; listed as PD,significantly decreased again
same,UCP1 gene expression,[7]; listed as PD,significantly increased again
same,UCP3 gene expression,[7]; listed as PD,significantly increased again
same,leptin gene expression,[7]; listed as PD,significantly decreased again
same,activation (p-AMPK/AMPK ratio) of AMPK,AMPK,significant increase
same,activation (p-AMPK/AMPK ratio) of AMPK,AMPK; listed as PD,significantly increased
same,decrease in absolute liver weight,Dietary Obese Mice [8],30%
same,decrease in free fatty acid concentration of hepatic tissue,Dietary Obese Mice [8],65%
same,decrease in neutral fat concentration of hepatic tissue,Dietary Obese Mice [8],33%
same,decrease in total cholesterol concentration of hepatic tissue,Dietary Obese Mice [8],31%
same,blood glucose concentrations over time after sugar intake (OGTT),Dietary Obese Mice [9],decrease
same,reduction of area under the curve (AUC) of the glucose concentration (OGTT),Dietary Obese Mice [9],20%
same,decrease in plasma free fatty acid concentration,Dietary Obese Mice [10]; PD vs HFD group,39%
same,decrease in plasma neutral fat concentration,Dietary Obese Mice [10]; PD vs HFD group,27%
same,decrease in plasma total cholesterol concentration,Dietary Obese Mice [10]; PD vs HFD group,16%
same,HDL-cholesterol concentration in blood,Dietary Obese Mice [10]; between the experimental groups,did not show any significant difference
same,decrease in total visceral fat weight,Dietary Obese Mice [11]; PD vs HFD group,32%
same,"weights of epididymal fat, fat around the kidney, mesenteric fat, and retroperitoneal fat",Dietary Obese Mice [11]; PD vs HFD group,significantly reduced
same,effect of reducing body weight and visceral fat amount compared with control drugs,Dietary Obese Mice [11]; vs sibutramine and metformin diets,as much excellent effect of reducing body weight and visceral fat amount as commercially available anti-obesity drugs (sibutramine) and diabetes treatment drugs (metformin)

# Source: patent US11096903B2, “Use of pinocarveol” (INDUSTRY-ACADEMIC COOPERATION FOUNDATION, YONSEI UNIVERSITY, priority 2015, dated 2021)
